According to patent US8604034B2, “Substituted imidazo[1,2-α]pyrrolo[1,2-d]pyrazines for treating respiratory syncytial virus (RSV) infections” (Biota Scientific Management Pty Ltd., priority 2010, dated 2013):
Like-named read-outs stand apart in the source and are kept apart here.

System: RSV A2
Assay: RSV antiviral cytopathic effect (CPE) assay
Format: cell-based
Details: human respiratory syncytial virus, HEp-2, 120 h, HEp2 cells infected with RSV A2 (moi ~0.01), 5 days, MTT readout
Method: Compounds of the invention were tested for their antiviral activity against respiratory syncytial virus. Cytopathic effect (CPE) assays were performed essentially as described in the literature (see for example Watanabe et al, 1994, J. Virological Methods, 48:257). Serial dilutions of the test compounds were made in 96 well plates. HEp2 cells (1.0×10^4 cells/well) were infected with RSV at a low multiplicity of infection (e.g. RSV A2 at an moi of ˜0.01) and added to plates to assess antiviral activity. Uninfected HEp2 cells were used to assess compound cytotoxicity. Assays were incubated for 5 days at 37° C. in a 5% CO2 atmosphere. The extent of CPE was determined via metabolism of the vital dye 3-(4,5-dimethylthiaxol-2-yl)-2,5-diphenyltetrazolium bromide (MTT). MTT (1 mg/ml) was added to each well and plates incubated for 2 hours incubation at 37° C. Wells were aspirated, iso-propanol (200 μL) was added and absorbance values read at 540/650 nm. Compound concentrations that inhibited CPE by 50% (EC50) and developed cytotoxicity (CC50) were calculated using non-linear regression analysis.
Representative mean EC50 values obtained are also provided. In the inventors' experience, replicate EC50 values usually fall within three standard deviations of the mean.

[1] = read-out: Activity Range (RSV A2 EC50)
[2] = mean EC50, read-out: RSV A2 EC50

Row | EC50 [1] [µM] | EC50 [2] [µM] | SMILES
1 | 0.1 to 0.499 | 0.16 | Cc1nocc1C(=O)N1CCN2C(=O)c3cc(-c4cccnc4)cn3CC12c1ccc(CO)cc1 (stereo not drawn) [Compound 95, 10a-[4-(hydroxymethyl)phenyl]-1-[(3-methyl-1,2-oxazol-4-yl)carbonyl]-7-(pyridin-3-yl)-2,3,10,10a-tetrahydro-1H,5H-imidazo[1,2-a]pyrrolo[1,2-d]pyrazin-5-one]
2 | 0.1 to 0.499 | 0.15 | Cc1nocc1C(=O)N1CCN2C(=O)c3ccc(-c4cnn(C)c4)n3CC12c1ccc(F)cc1 (stereo not drawn) [Compound 96]
3 | 0.1 to 0.499 | 0.46 | Cc1nocc1C(=O)N1CCN2C(=O)c3ccc(-c4cccnc4)n3CC12c1ccc(F)cc1 (stereo not drawn) [Compound 97]
4 | 0.05 to 0.099 | 0.069 | Cc1nocc1C(=O)N1CCN2C(=O)c3cc(-c4cccnc4)cn3CC12c1ccc(F)cc1 (stereo not drawn) [Compound 98]
5 | 0.1 to 0.499 | 0.19 | Cc1nocc1C(=O)N1CCN2C(=O)c3ccc(-c4ccncc4)n3CC12c1ccc(F)cc1 (stereo not drawn) [Compound 99]
6 | 0.5 to 10 | 8 | COc1ccc(C23Cn4cc(-c5ccc(C(=O)O)cc5)cc4C(=O)N2CCN3C(=O)c2conc2C)cc1 (stereo not drawn) [Compound 100]
7 | 0.5 to 10 | 0.73 | Cc1nocc1C(=O)N1CCN2C(=O)c3cccn3CC12c1cccnc1 (stereo not drawn) [Compound 101, 1-[(3-methyl-1,2-oxazol-4-yl)carbonyl]-10a-(pyridin-3-yl)-2,3,10,10a-tetrahydro-1H,5H-imidazo[1,2-a]pyrrolo[1,2-d]pyrazin-5-one]
8 | 0.1 to 0.499 | 0.38 | Cc1nocc1C(=O)N1CCN2C(=O)c3cccn3CC12c1ccccn1 (stereo not drawn) [Compound 103, 1-[(3-methyl-1,2-oxazol-4-yl)carbonyl]-10a-(pyridin-2-yl)-2,3,10,10a-tetrahydro-1H,5H-imidazo[1,2-a]pyrrolo[1,2-d]pyrazin-5-one]
9 | < 0.049 | 0.027 | Cc1ccc(C23Cn4cccc4C(=O)N2CCN3C(=O)c2conc2C)nc1 (stereo not drawn) [Compound 104]
10 | 0.1 to 0.499 | 0.13 | Cc1nocc1C(=O)N1CCN2C(=O)c3cccn3CC12c1ccc(C(F)(F)F)nc1 (stereo not drawn) [Compound 105]
11 | < 0.049 | 0.0041 | COc1ccc(C23Cn4c(C#N)ccc4C(=O)N2CCN3C(=O)c2conc2C)cc1 (stereo not drawn) [Compound 106, 10a-(4-methoxyphenyl)-1-[(3-methyl-1,2-oxazol-4-yl)carbonyl]-5-oxo-2,3,10,10a-tetrahydro-1H,5H-imidazo[1,2-a]pyrrolo[1,2-d]pyrazine-8-carbonitrile]
12 | < 0.049 | 0.014 | COc1ccc(C23Cn4c(C)ccc4C(=O)N2CCN3C(=O)c2conc2C)cc1 (stereo not drawn) [Compound 107, 10a-(4-methoxyphenyl)-8-methyl-1-[(3-methyl-1,2-oxazol-4-yl)carbonyl]-2,3,10,10a-tetrahydro-1H,5H-imidazo[1,2-a]pyrrolo[1,2-d]pyrazin-5-one]
13 | < 0.049 | 0.017 | C#Cc1ccc2n1CC1(c3ccc(OC)cc3)N(C(=O)c3conc3C)CCN1C2=O (stereo not drawn) [Compound 108, 8-ethynyl-10a-(4-methoxyphenyl)-1-[(3-methyl-1,2-oxazol-4-yl)carbonyl]-2,3,10,10a-tetrahydro-1H,5H-imidazo[1,2-a]pyrrolo[1,2-d]pyrazin-5-one]
14 | 0.1 to 0.499 | 0.3 | Cc1nocc1C(=O)N1CCN2C(=O)c3cccn3CC12c1ccc(OCCO)cc1 (stereo not drawn) [Compound 109, 10a-[4-(2-hydroxyethoxy)phenyl]-1-[(3-methyl-1,2-oxazol-4-yl)carbonyl]-2,3,10,10a-tetrahydro-1H,5H-imidazo[1,2-a]pyrrolo[1,2-d]pyrazin-5-one]
15 | 0.5 to 10 | 0.68 | Cc1nocc1C(=O)N1CCN2C(=O)c3cccn3CC12c1ccc(OCCN2CCOCC2)cc1 (stereo not drawn) [Compound 110, 1-[(3-methyl-1,2-oxazol-4-yl)carbonyl]-10a-{4-[2-(morpholin-4-yl)ethoxy]phenyl}-2,3,10,10a-tetrahydro-1H,5H-imidazo[1,2-a]pyrrolo[1,2-d]pyrazin-5-one]
16 | > 10 | 16 | COc1ccc(C23Cn4cc(N)cc4C(=O)N2CCN3C(=O)c2conc2C)cc1 (stereo not drawn) [Compound 111, 7-amino-10a-(4-methoxyphenyl)-1-[(3-methyl-1,2-oxazol-4-yl)carbonyl]-2,3,10,10a-tetrahydro-1H,5H-imidazo[1,2-a]pyrrolo[1,2-d]pyrazin-5-one]
17 | > 10 |  | COc1ccc(C23Cn4cc(NC5CCCCC5)cc4C(=O)N2CCN3C(=O)c2conc2C)cc1 (stereo not drawn) [Compound 112, 7-(cyclohexylamino)-10a-(4-methoxyphenyl)-1-[(3-methyl-1,2-oxazol-4-yl)carbonyl]-2,3,10,10a-tetrahydro-1H,5H-imidazo[1,2-a]pyrrolo[1,2-d]pyrazin-5-one]
18 | 0.1 to 0.499 | 0.32 | COc1ccc(C23Cn4cc(-n5ccnn5)cc4C(=O)N2CCN3C(=O)c2conc2C)cc1 (stereo not drawn) [Compound 113, 10a-(4-methoxyphenyl)-1-[(3-methyl-1,2-oxazol-4-yl)carbonyl]-7-(1H-1,2,3-triazol-1-yl)-2,3,10,10a-tetrahydro-1H,5H-imidazo[1,2-a]pyrrolo[1,2-d]pyrazin-5-one]
19 | < 0.049 | 0.039 | Cc1cnc(C23Cn4cccc4C(=O)N2CCN3C(=O)c2conc2C)cn1 (stereo not drawn) [Compound 114]
20 | 0.1 to 0.499 | 0.23 | COc1ccc(C23Cn4cccc4C(=O)N2CCN3C(=O)c2conc2C)nc1 (stereo not drawn) [Compound 115]

Row | EC50 [1] [µM] | EC50 [2] [µM] | SMILES
21 | 0.05 to 0.099 | 0.059 | Cc1nocc1C(=O)N1CCN2C(=O)c3cccn3CC12c1ccc(C(F)(F)F)cn1 (stereo not drawn) [Compound 116, 1-[(3-methyl-1,2-oxazol-4-yl)carbonyl]-10a-[5-(trifluoromethyl)pyridin-2-yl]-2,3,10,10a-tetrahydro-1H,5H-imidazo[1,2-a]pyrrolo[1,2-d]pyrazin-5-one]
22 | 0.5 to 10 | 0.88 | Cc1ccc(C23Cn4cc(Br)cc4C(=O)N2CCN3C(=O)c2conc2C)nc1 (stereo not drawn) [Compound 117]
23 | 0.1 to 0.499 | 0.32 | Cc1nocc1C(=O)N1CCN2C(=O)c3cccn3CC12c1cnn(C)c1 (stereo not drawn) [Compound 118]
24 | 0.05 to 0.099 | 0.096 | Cc1cc(C23Cn4cccc4C(=O)N2CCN3C(=O)c2conc2C)ccn1 (stereo not drawn) [Compound 119]
25 | 0.05 to 0.099 | 0.087 | Cc1ccc(C23Cn4cc(-c5cccnc5)cc4C(=O)N2CCN3C(=O)c2conc2C)nc1 (stereo not drawn) [Compound 120]
26 | < 0.049 | 0.042 | Cc1cnc(C23Cn4cc(-c5cccnc5)cc4C(=O)N2CCN3C(=O)c2conc2C)cn1 (stereo not drawn) [Compound 121, 1-[(3-methyl-1,2-oxazol-4-yl)carbonyl]-10a-(5-methylpyrazin-2-yl)-7-(pyridin-3-yl)-2,3,10,10a-tetrahydro-1H,5H-imidazo[1,2-a]pyrrolo[1,2-d]pyrazin-5-one]
27 | 0.1 to 0.499 | 0.43 | Cc1nocc1C(=O)N1CCN2C(=O)c3cccn3CC12c1ccncc1 (stereo not drawn) [Compound 122, 1-[(3-methyl-1,2-oxazol-4-yl)carbonyl]-10a-(pyridin-4-yl)-2,3,10,10a-tetrahydro-1H,5H-imidazo[1,2-a]pyrrolo[1,2-d]pyrazin-5-one]
28 | < 0.049 | 0.0078 | Cc1ccc(C23Cn4c(C#N)ccc4C(=O)N2CCN3C(=O)c2conc2C)cn1 (stereo not drawn) [Compound 126]
29 | < 0.049 | 0.027 | Cc1ccc(C23Cn4cc(-c5ccccn5)cc4C(=O)N2CCN3C(=O)c2conc2C)cn1 (stereo not drawn) [Compound 127]
30 | 0.05 to 0.099 | 0.064 | COc1ccc(C23Cn4cc(-c5ccccn5)cc4C(=O)N2CCN3C(=O)c2conc2C)cn1 (stereo not drawn) [Compound 128]
31 | 0.1 to 0.499 | 0.13 | Cc1nocc1C(=O)N1CCN2C(=O)c3cc(-c4ccccn4)nn3CC12c1ccc(F)cc1 (stereo not drawn) [Compound 129]
32 | > 10 |  | COc1ccc(C23Cn4cccc4C(=O)N2CCN3C(=O)NCc2ccco2)cc1 (stereo not drawn) [Compound 130]
33 | > 10 |  | COc1ccc(C23Cn4cccc4C(=O)N2CCN3S(=O)(=O)c2ccccc2)cc1 (stereo not drawn) [Compound 131]
34 | < 0.049 | 0.031 | Cc1ccc(C23Cn4cc(-c5cnn(C)c5)cc4C(=O)N2CCN3C(=O)c2conc2C)cn1 (stereo not drawn) [Compound 132]
35 | < 0.049 | 0.007 | COc1ccc(C23Cn4c(C#N)ccc4C(=O)N2CCN3C(=O)c2conc2C)cn1 (stereo not drawn) [Compound 133]
36 | < 0.049 | 0.031 | Cc1ccc(C23Cn4cc(-c5cnn(C)c5)cc4C(=O)N2CCN3C(=O)c2conc2C)nc1 (stereo not drawn) [Compound 134]
37 | < 0.049 | 0.0091 | Cc1ccc(C23Cn4cc(-c5ccncc5)cc4C(=O)N2CCN3C(=O)c2conc2C)cn1 (stereo not drawn) [Compound 135]
38 | 0.5 to 10 | 0.89 | COc1ccc(C23Cn4cccc4C(=O)N2CCN3C(=O)c2nonc2C)cc1 (stereo not drawn) [Compound 136]
39 | 0.5 to 10 | 6.6 | COc1ccc(C23Cn4cccc4C(=O)N2CCN3C(=O)c2ccsc2)cc1 (stereo not drawn) [Compound 137]
40 | 0.5 to 10 | 4.2 | COc1ccc(C23Cn4nc(-c5ccccn5)cc4C(=O)N2CCN3C(=O)c2conc2C)cc1 (stereo not drawn) [Compound 138]

Row | SMILES | EC50 [1] [µM] | EC50 [2] [µM]
41 | O=C1c2cccn2CC2(c3cccnc3)NCCN12 (stereo not drawn) [Compound 102, 10a-(pyridin-3-yl)-2,3,10,10a-tetrahydro-1H,5H-imidazo[1,2-a]pyrrolo[1,2-d]pyrazin-5-one] | > 10 | 
